The values below come from paper PMC10350923, “In Vitro and In Vivo Biological Activities of Dipicolinate Oxovanadium(IV) Complexes” (Journal of Medicinal Chemistry, 2023).

Each structure is given as a SMILES string.

Data set [1] deals with A2780 (ovarian carcinoma cell line). Kind of data set: MTS cell viability assay, A2780. It counts as cell-based, human. The following applies: Homo sapiens, A2780, 48 h of exposure, mean ± SEM.
Data set [2] relates to HCT116-DoxR cells. In words: Alexa Fluor 488-annexin V/PI apoptosis assay, flow cytometry. The following applies: 48 h, complexes at IC50, cisplatin 5 μM, Dox 6 μM. It counts as cell-based, human.
The subject of data set [3] is HCT116-DoxR cells. In words: Cell cycle progression, PI, flow cytometry. The following applies: HCT116-DoxR, 3, 9, 24, 32 h; complexes at IC50, cisplatin 5 μM, Dox 6 μM.
The test system of data set [4] is HCT116-DoxR cells. Kind of data set: Autophagy induction, Green Detection Reagent, flow cytometry. The settings on record: 48 h, complexes at IC50, cisplatin 5 μM, Dox 6 μM.
Data set [5] relates to HCT116 (colorectal carcinoma cell line). In words: MTS cell viability assay, HCT116. The settings on record: Homo sapiens, HCT-116, 48 h of exposure, mean ± SEM. It counts as cell-based, human.
The test system of data set [6] is HCT116-DoxR (doxorubicin-resistant colorectal carcinoma cell line). The settings on record: doxorubicin in resistant line; cited from earlier work.

`COc1cccc2c1C(=O)c1c(O)c3c(c(O)c1C2=O)C[C@@](O)(C(=O)CO)C[C@@H]3O[C@H]1C[C@H](N)[C@H](O)[C@H](C)O1` [doxorubicin, reference compound]: in data set [1], the IC50 came out at 100 ± 40 nM. For the same compound, in data set [2], the early apoptosis was 19.0 ± 4.4%, the necrosis was found to be 11.2 ± 2.0%, the “percentage of apoptosis (total)” value is reported as 34% and the viable cells was 54.9 ± 4.3%. Moreover, in data set [2] (listed as Dox), the necrosis was determined as 11% and the viable cells entry is reported as “about 55%”. Besides, the “cell cycle arrest / cytostatic effect” value in data set [3] is “did not occur”. In addition, the “increase of autophagic vesicles over the control” value in data set [4] is on record as around 2.3 fold. For the same compound, the half-inhibitory concentration (IC50) in data set [5] stood at 500 ± 100 nM. Also, in data set [6], the IC50 is above 6 µM.
